SMILES strings stand for the structures.

The results in this text go back to patent publication US11667649B2, “Heteroaromatic macrocyclic ether chemotherapeutic agents” (Nuvalent, Inc., priority 2020, dated 2023).

The subject of this experiment is TPM3-NTRK1-wt IC50 / primary target (e.g. CD74-ROS1-wt) IC50, Ba/F3 cells. The experiment can be described thus: Cell assay TRKA selectivity (TRKA potency divided by primary target potency). It counts as cell-based. As to conditions: for TPM3-NTRK1-wt/CD74-ROS1-G2032R: TRKA selectivity ratio: TPM3-NTRK1-wt IC50 / CD74-ROS1-G2032R IC50, Ba/F3 cells; for TPM3-NTRK1-wt/CD74-ROS1-wt: TRKA selectivity ratio: TPM3-NTRK1-wt IC50 / CD74-ROS1-wt IC50, Ba/F3 cells; for TPM3-NTRK1-wt/EML4-ALK-L1196M-G1202R: TRKA selectivity ratio: TPM3-NTRK1-wt IC50 / EML4-ALK-L1196M-G1202R IC50, Ba/F3 cells; for TPM3-NTRK1-wt/EML4-ALK-wt: TRKA selectivity ratio: TPM3-NTRK1-wt IC50 / EML4-ALK-wt IC50, Ba/F3 cells. From the text: Genes encoding CD74-ROS1 wild-type (wt), CD74-ROS1 G2032R, CD74-ROS1 S1986F, CD74-ROS1 L2026M, CD74-ROS1 D2033N, EML4-ALK wt (variant 1), EML4-ALK G1202R (variant 1), EML4-ALK L1196M/G1202R (variant 1), EML4-ALK G1202R/G1269A (variant 1), EML4-ALK G1202R/L1198F (variant 1), and TPM3-TRKA were synthesized at GeneRay, cloned into the retroviral construct pMSCV-puro (Biovector), and packaged into retroviral particles. The virus was used to infect Ba/F3 cells (RIKEN) at multiplicity of infection=1 for 1 day. Infected cells were rescued in media (RPMI-1640 with 10% fetal bovine serum and 1% streptomycin and penicillin) supplemented with mouse IL-3 (10 ng/mL) for 2 days, and stable cell lines were selected by IL-3 withdrawal and puromycin (0.8 μg/mL) for 7 days. Monoclones were selected by single-cell dilution in IL-3-free medium containing puromycin (0.8 μg/mL). Transformation of desired genes was confirmed by Sanger sequencing and western blot using the following antibodies: ROS1 (CST #3287), ALK (CST #3633), and pan-TRK (Abcam #76291).
Stable cells were plated at 1,000 cells/well (40 μL) in a 384-well plate for 1 day. Test compounds (40 nL) were then added in a 3-fold dilution series using the TECAN EVO200 liquid handler and incubated for 72 hours. Plates were equilibrated at room temperature for 15 minutes followed by addition of 40 μL CellTiter-Glo reagent (Promega). Luminescence was measured on a plate reader. Half-maximal inhibitory concentration (IC50) was calculated from percent inhibition and inhibitor concentration using four-parameter logistic regression. […] Exemplary data is given in Table 4 (nd is not determined).
TRKA selectivity was calculated by dividing a compound's TRKA potency by its primary target potency (e.g. TPM3-NTRK1-wt IC50/CD74-ROS1-wt IC50). Compound selectivity can be interpreted by binning ratio values: bin A for very high selectivity, ratio>30-fold; bin B for high selectivity, ratio>10-fold; bin C for moderate selectivity, ratio≥1; and bin D for low selectivity, ratio<1. […] (nd=not determined).

Consider `CCc1nnn2c1-c1cnc(N)c(c1)O[C@H](C)c1cc(F)ccc1-c1nn(C)cc1C2` [Example 23, (19R)-3-ethyl-16-fluoro-10,19-dimethyl-20-oxa-4,5,6,10,11,23-hexaazapentacyclo[19.3.1.0^2,^6.0^8,^12.0^13,^18]pentacosa-1(24),2,4,8,11,13,15,17,21(25),22-decaen-22-amine], for which the TPM3-NTRK1-wt/CD74-ROS1-G2032R result is recorded as “A (bin A for very high selectivity, ratio>30-fold)”; the TPM3-NTRK1-wt/CD74-ROS1-wt entry was “A (bin A for very high selectivity, ratio>30-fold)”; the TPM3-NTRK1-wt/EML4-ALK-L1196M-G1202R result is “C (bin C for moderate selectivity, ratio≥1)”; the TPM3-NTRK1-wt/EML4-ALK-wt result is “A (bin A for very high selectivity, ratio>30-fold)”.

Turning to `C[C@H]1Oc2cc(cnc2N)-c2c(C#N)nnn2Cc2cn(C)nc2-c2ccc(F)cc21` [Example 24, (19R)-22-amino-16-fluoro-10,19-dimethyl-20-oxa-4,5,6,10,11,23-hexaazapentacyclo[19.3.1.0^2,^6.0^8,^12.0^13,^18]pentacosa-1(24),2,4,8,11,13,15,17,21(25),22-decaene-3-carbonitrile], the TPM3-NTRK1-wt/CD74-ROS1-G2032R entry was “A (bin A for very high selectivity, ratio>30-fold)”; the TPM3-NTRK1-wt/CD74-ROS1-wt entry is reported as “A (bin A for very high selectivity, ratio>30-fold)”; the TPM3-NTRK1-wt/EML4-ALK-L1196M-G1202R result was “C (bin C for moderate selectivity, ratio≥1)”; the TPM3-NTRK1-wt/EML4-ALK-wt entry was “A (bin A for very high selectivity, ratio>30-fold)”.

For `C[C@H]1Oc2cc(cnc2N)-c2c(C#N)nnn2Cc2cccnc2-c2ccc(F)cc21` [Example 25, (20R)-23-amino-17-fluoro-20-methyl-21-oxa-4,5,6,12,24-pentaazapentacyclo[20.3.1.0^2,^6.0^8,^13.0^14,^19]hexacosa-1(25),2,4,8(13),9,11,14,16,18,22(26),23-undecaene-3-carbonitrile], the TPM3-NTRK1-wt/CD74-ROS1-G2032R entry is recorded as “A (bin A for very high selectivity, ratio>30-fold)”; the TPM3-NTRK1-wt/CD74-ROS1-wt result is “A (bin A for very high selectivity, ratio>30-fold)”; the TPM3-NTRK1-wt/EML4-ALK-L1196M-G1202R result is “B (bin B for high selectivity, ratio>10-fold)”; the TPM3-NTRK1-wt/EML4-ALK-wt result is given as “A (bin A for very high selectivity, ratio>30-fold)”.

For `C[C@H]1Oc2cc(cnc2N)-c2c(C3CCC3)noc2Cc2cn(C)nc2-c2ccc(F)cc21` [Example 26, (19R)-3-cyclobutyl-16-fluoro-10,19-dimethyl-5,20-dioxa-4,10,11,23-tetraazapentacyclo[19.3.1.0^2,^6.0^8,^12.0^13,^18]pentacosa-1(24),2(6),3,8,11,13,15,17,21(25),22-decaen-22-amine], the TPM3-NTRK1-wt/CD74-ROS1-G2032R result is “A (bin A for very high selectivity, ratio>30-fold)”; the TPM3-NTRK1-wt/CD74-ROS1-wt entry is listed as “A (bin A for very high selectivity, ratio>30-fold)”; the TPM3-NTRK1-wt/EML4-ALK-L1196M-G1202R entry is “B (bin B for high selectivity, ratio>10-fold)”; the TPM3-NTRK1-wt/EML4-ALK-wt result was “A (bin A for very high selectivity, ratio>30-fold)”.

On to `C[C@H]1Oc2cc(cnc2N)-c2c(cnn2CC(F)(F)F)Cc2cn(C)nc2-c2ccc(F)cc21` [Example 27, (19R)-16-fluoro-10,19-dimethyl-3-(2,2,2-trifluoroethyl)-20-oxa-3,4,10,11,23-pentaazapentacyclo[19.3.1.0^2,^6.0^8,^12.0^13,^18]pentacosa-1(24),2(6),4,8,11,13,15,17,21(25),22-decaen-22-amine], for which the TPM3-NTRK1-wt/CD74-ROS1-G2032R result is given as “A (bin A for very high selectivity, ratio>30-fold)”; the TPM3-NTRK1-wt/CD74-ROS1-wt entry is reported as “A (bin A for very high selectivity, ratio>30-fold)”; the TPM3-NTRK1-wt/EML4-ALK-L1196M-G1202R result is “A (bin A for very high selectivity, ratio>30-fold)”; the TPM3-NTRK1-wt/EML4-ALK-wt entry was “A (bin A for very high selectivity, ratio>30-fold)”.

In the case of `CCn1ncc2c1-c1cnc(N)c(c1)O[C@H](C)c1cc(F)ccc1-c1nn(C)c(Cl)c1C2` [Example 28, (19R)-9-chloro-3-ethyl-16-fluoro-10,19-dimethyl-20-oxa-3,4,10,11,23-pentaazapentacyclo[19.3.1.0^2,^6.0^8,^12.0^13,^18]pentacosa-1(24),2(6),4,8,11,13,15,17,21(25),22-decaen-22-amine], the TPM3-NTRK1-wt/CD74-ROS1-G2032R result is recorded as “A (bin A for very high selectivity, ratio>30-fold)”; the TPM3-NTRK1-wt/CD74-ROS1-wt result is “A (bin A for very high selectivity, ratio>30-fold)”; the TPM3-NTRK1-wt/EML4-ALK-L1196M-G1202R result was “C (bin C for moderate selectivity, ratio≥1)”; the TPM3-NTRK1-wt/EML4-ALK-wt entry is reported as “A (bin A for very high selectivity, ratio>30-fold)”.

On to `C[C@H]1Oc2cc(cnc2N)-c2c(nnn2CC2CC2)Cc2cn(C)nc2-c2ccc(F)cc21` [Example 29, (19R)-3-(cyclopropylmethyl)-16-fluoro-10,19-dimethyl-20-oxa-3,4,5,10,11,23-hexaazapentacyclo[19.3.1.0^2,^6.0^8,^12.0^13,^18]pentacosa-1(24),2(6),4,8,11,13,15,17,21(25),22-decaen-22-amine], for which the TPM3-NTRK1-wt/CD74-ROS1-G2032R result is “A (bin A for very high selectivity, ratio>30-fold)”; the TPM3-NTRK1-wt/CD74-ROS1-wt entry is “A (bin A for very high selectivity, ratio>30-fold)”; the TPM3-NTRK1-wt/EML4-ALK-L1196M-G1202R result is reported as “A (bin A for very high selectivity, ratio>30-fold)”; the TPM3-NTRK1-wt/EML4-ALK-wt entry is “A (bin A for very high selectivity, ratio>30-fold)”.

As to `CCc1noc2c1-c1cnc(N)c(c1)OCc1cc(F)ccc1-c1nn(C)cc1C2` [Example 30, 3-ethyl-16-fluoro-10-methyl-5,20-dioxa-4,10,11,23-tetraazapentacyclo[19.3.1.0^2,^6.0^8,^12.0^13,^18]pentacosa-1(24),2(6),3,8,11,13,15,17,21(25),22-decaen-22-amine], the TPM3-NTRK1-wt/CD74-ROS1-G2032R entry is “A (bin A for very high selectivity, ratio>30-fold)”; the TPM3-NTRK1-wt/CD74-ROS1-wt entry is “A (bin A for very high selectivity, ratio>30-fold)”; the TPM3-NTRK1-wt/EML4-ALK-L1196M-G1202R entry is listed as “C (bin C for moderate selectivity, ratio≥1)”; the TPM3-NTRK1-wt/EML4-ALK-wt result was “A (bin A for very high selectivity, ratio>30-fold)”.

On to `CCn1ncc2c1-c1cnc(N)c(c1)O[C@H](C)c1cc(F)ccc1-c1nccn1C2` [Example 31, (19R)-3-ethyl-16-fluoro-19-methyl-20-oxa-3,4,8,11,23-pentaazapentacyclo[19.3.1.0^2,^6.0^8,^12.0^13,^18]pentacosa-1(24),2(6),4,9,11,13,15,17,21(25),22-decaen-22-amine], for which the TPM3-NTRK1-wt/CD74-ROS1-G2032R entry is “A (bin A for very high selectivity, ratio>30-fold)”; the TPM3-NTRK1-wt/CD74-ROS1-wt entry is recorded as “A (bin A for very high selectivity, ratio>30-fold)”; the TPM3-NTRK1-wt/EML4-ALK-L1196M-G1202R entry is recorded as “C (bin C for moderate selectivity, ratio≥1)”; the TPM3-NTRK1-wt/EML4-ALK-wt entry is listed as “A (bin A for very high selectivity, ratio>30-fold)”.

`CCn1ncc2c1-c1cnc(N)c(c1)O[C@H](C)c1cc(F)ccc1-c1c(cnn1C)C2` [Example 32, (19R)-3-ethyl-16-fluoro-11,19-dimethyl-20-oxa-3,4,10,11,23-pentaazapentacyclo[19.3.1.0^2,^6.0^8,^12.0^13,^18]pentacosa-1(24),2(6),4,8(12),9,13,15,17,21(25),22-decaen-22-amine]: the TPM3-NTRK1-wt/CD74-ROS1-G2032R entry was “A (bin A for very high selectivity, ratio>30-fold)”; the TPM3-NTRK1-wt/CD74-ROS1-wt entry is “A (bin A for very high selectivity, ratio>30-fold)”; the TPM3-NTRK1-wt/EML4-ALK-L1196M-G1202R entry is “C (bin C for moderate selectivity, ratio≥1)”; the TPM3-NTRK1-wt/EML4-ALK-wt entry is listed as “B (bin B for high selectivity, ratio>10-fold)”.

Regarding `CCn1ncc2c1-c1cnc(N)c(c1)O[C@H](C)c1cc(F)ccc1-n1nccc1C2` [Example 33, (19R)-3-ethyl-16-fluoro-19-methyl-20-oxa-3,4,11,12,23-pentaazapentacyclo[19.3.1.0^2,^6.0^8,^12.0^13,^18]pentacosa-1(24),2(6),4,8,10,13,15,17,21(25),22-decaen-22-amine], the TPM3-NTRK1-wt/CD74-ROS1-G2032R entry is recorded as “A (bin A for very high selectivity, ratio>30-fold)”; the TPM3-NTRK1-wt/CD74-ROS1-wt entry is listed as “A (bin A for very high selectivity, ratio>30-fold)”; the TPM3-NTRK1-wt/EML4-ALK-L1196M-G1202R entry is “B (bin B for high selectivity, ratio>10-fold)”; the TPM3-NTRK1-wt/EML4-ALK-wt result is listed as “A (bin A for very high selectivity, ratio>30-fold)”.
